These results are taken from publication PMC11443485, “Euphane and Tirucallane Triterpenes with Trypanocidal Activity from Euphorbia desmondii” (Journal of Natural Products, 2024).

In general, IC50 refers to the concentration that gives 50% inhibition.

Where two headings read alike, the source gives them in different places.

The test system of one test is RAW264.7 macrophages. Kind of test: Cytotoxicity in RAW264.7 macrophages (mammalian host cells). Particulars: host cell cytotoxicity, read-out: RAW 264.7 IC50. Type of test: cell-based. Here is the method:
[The procedure below names another organism; the source lists this organism under the same test.] To biologically characterize the isolated triterpenoids for their trypanocidal activities, their cytotoxicities in RAW264.7 macrophages (mammalian host cells) and T. cruzi epimastigotes were analyzed.
To assess the selectivities of the isolated compounds, their trypanocidal activities against the epimastigotes were assessed by the Cell Proliferation Kit II (XTT) assay, as previously described.[11] Briefly, 1.5 × 10^5 epimastigotes were seeded per well in 96-well plates. […] In all the experiments, benznidazole was used as the positive control. Following the incubation period, the plates were examined under a microscope for sterility and growth of controls. To the plates, 50 μL of XTT and PMS (Phenazine methosulfate, Sigma-Aldrich, MO, USA) solution (XTT and PMS at 0.5 and 0.025 mg/mL, respectively) was added, and the plates were then incubated at 28 °C for 2.5 h. The parasites were fixed by the addition of 50 μL of MeOH for 15 min before the absorbance was measured at 490 nm on a Tecan plate reader. Results were expressed as percentage cell viability relative to vehicle control or IC50 values calculated by GraphPad Prism version 8.0. All assessments were performed in triplicate in at least two independent experiments.

In test [1] the test system is T. cruzi epimastigotes (Y strain). Briefly: Trypanocidal activity against T. cruzi epimastigotes, Cell Proliferation Kit II (XTT) assay. The class given is cell-based, Trypanosoma cruzi. Particulars: for Selectivity Index: T. cruzi epimastigotes over the host cell (RAW264.7 macrophages); for Increase of the proliferation of the epimastigotes: at the lower micromolar concentrations, trypanocidal at higher concentrations; for IC50: epimastigotes, Y strain, 72 h at 28 °C, XTT, read-out: T. cruzi epimastigote WT-Y IC50; for Effect on T. cruzi epimastigote proliferation (Figure S130): mean ± SD of three independent experiments each in triplicates. Here is the method:
Epimastigotes of T. cruzi [Y strain (ATCC 50832)] were maintained in weekly passages in a liver infusion tryptose (LIT) medium supplemented with 10% heat-inactivated fetal bovine serum (hiFBS) at 28 °C, as described previously.[33] The epimastigote cultures in the logarithmic-growth phase (1–5 × 10^7 parasites/mL) were used for the experiments unless stated otherwise. The green fluorescent protein (GFP)-overexpressing epimastigotes were generated by transfection using pTREX-n-eGFP, a gift from Rick Tarleton (Addgene plasmid # 62544; http://n2t.net/addgene:62544;RRID:Addgene_62544), as described previously. The GFP-expressing epimastigotes were cultured in LIT medium supplemented with 10% hiFBS and 500 μg/mL G418.
To assess the selectivities of the isolated compounds, their trypanocidal activities against the epimastigotes were assessed by the Cell Proliferation Kit II (XTT) assay, as previously described.[11] Briefly, 1.5 × 10^5 epimastigotes were seeded per well in 96-well plates. The compounds were added at a single concentration, 10 μM (for the initial screening experiments) or six concentrations ranging from 10–0.3 μM for 72 h at 28 °C. In all the experiments, benznidazole was used as the positive control. Following the incubation period, the plates were examined under a microscope for sterility and growth of controls. To the plates, 50 μL of XTT and PMS (Phenazine methosulfate, Sigma-Aldrich, MO, USA) solution (XTT and PMS at 0.5 and 0.025 mg/mL, respectively) was added, and the plates were then incubated at 28 °C for 2.5 h. The parasites were fixed by the addition of 50 μL of MeOH for 15 min before the absorbance was measured at 490 nm on a Tecan plate reader. Results were expressed as percentage cell viability relative to vehicle control or IC50 values calculated by GraphPad Prism version 8.0. All assessments were performed in triplicate in at least two independent experiments.
A general note: Formazan colour is commonly taken as a measure of viable cells.

The test system of test [2] is T. cruzi amastigotes in infected RAW264.7 cells. Briefly: Amastigote replication in host cells: FACS quantitation of GFP parasites released from infected RAW264.7 cells. Type of test: cell-based, Trypanosoma cruzi. Particulars: GFPY parasite release from infected RAW264.7 cells, FACS after 6 days, mean ± SD of three independent experiments. How it is done:
Figure 3 Inhibition activity of 1 against amastigote replication in the host cells. […] (A) Representative brightfield microscopic image of CCL39 fibroblasts infected with Trypanosoma cruzi with amastigotes (arrow). […] (C) Inhibition curves of compound 1 and the positive control, benznidazole, of the GFPY parasite release from the infected RAW264.7 cells were measured by fluorescence-activated cell sorting (FACS) after 6 days.
Fluorescence-activated cell sorting (FACS)-based quantitation of released parasites from infected RAW264.7 cells: The host cells were seeded in 24-well plates at densities of 40,000 and 10,000 cells/mL. The cells were allowed to adhere for 24 h, after which they were infected with trypomastigotes that were harvested by the swim-out procedure described above at a multiplicity of 10. On the next day, the noninternalized trypomastigotes were washed off, and fresh RPMI with 2% fetal bovine serum was added to the wells along with the test substance. In all of the experiments, the screening was performed in triplicate, including tests with DMSO and benznidazole controls. The released parasites were fixed using 4% paraformaldehyde in phosphate-buffered saline for 1 h, after which the samples were analyzed by FACS (BD Biosciences), as described previously.[11]

Setting [3] is: Trypanosoma cruzi, RAW264.7, 144 h.

In the case of “3β-hydroxy-27-nor-tirucalla-8-en-7,11,25-trione [Compound 12]”, the IC50 in the test on RAW264.7 macrophages was 24.4 µM. For the same compound, in test [1], the “Selectivity Index” value is given as 6.6, the “Increase of the proliferation of the epimastigotes” value (“Increase” below) is 15–30%, the IC50 came to 3.7 µM and the “Effect on T. cruzi epimastigote proliferation (Figure S130)” value (“Effect” below) was “significant increase”.

For the compound `C[C@H](C/C=C/C(C)(C)OO)[C@@H]1CC[C@]2(C)C3=C(CC[C@@]12C)[C@@]1(C)CC[C@H](O)C(C)(C)[C@@H]1CC3=O` [Compound 1, (23E)-25-hydroperoxyeupha-8,23-diene-3β-ol-7-one], the IC50 was 2.4 ± 0.3 µM in test [2] (listed as desmondiin A), 2.5 ± 0.3 µM in test [2] (setting [3]), 38.1 µM with RAW264.7 macrophages (Mus musculus) and 4.5 µM in test [1] (Trypanosoma cruzi). Moreover, the “Selectivity Index” value in test [1] came out at 8.5.

`CC(C)C(=O)CC[C@@H](C)[C@@H]1CC[C@]2(C)C3=C(CC[C@@]12C)[C@@]1(C)CC[C@H](O)C(C)(C)[C@@H]1CC3=O` [Compound 2, eupha-8-ene-3β-ol-7,24-dione]: the IC50 in the test on RAW264.7 macrophages (Mus musculus) was 31.5 µM. For the same compound, in test [1], the “Selectivity Index” value is on record as 6.3 and the “Effect” value was “significant increase”. Further, in test [1] (Trypanosoma cruzi), the concentration for half-maximal inhibition (IC50) amounted to 5 µM.

Turning to `CC(=O)CCC[C@H](C)[C@@H]1CC[C@]2(C)C3=C(CC[C@@]12C)[C@@]1(C)CC[C@H](O)C(C)(C)[C@@H]1CC3=O` [Compound 3, Desmondiin D], the 50% inhibitory concentration (IC50) was 31 µM in the test on RAW264.7 macrophages (Mus musculus) and 4 µM in test [1] (Trypanosoma cruzi). Besides, the “Selectivity Index” value in test [1] came out at 7.8.

Take `C[C@@H](C/C=C/C(C)(C)OO)[C@@H]1CC[C@]2(C)C3=C(C(OO)C[C@@]12C)[C@@]1(C)CC[C@H](O)C(C)(C)[C@@H]1CC3=O` (stereo partly drawn) [Compound 5, (23E)-11,25-dihydroperoxytirucalla-8,23-dien-3β-ol-7-one]: in the test on RAW264.7 macrophages (Mus musculus), the half-maximal inhibitory concentration (IC50) turned out to be 18.4 µM. In test [1], the “Selectivity Index” value was 5.4, the “Increase” value is 15–30% and the “Effect” value is recorded as “significant increase”. The IC50 in test [1] (Trypanosoma cruzi) came to 3.4 µM.

For `C/C(C=O)=C\CC[C@H](C)[C@@H]1CC[C@]2(C)C3=C([C@@H](O)C[C@@]12C)[C@@]1(C)CC[C@H](O)C(C)(C)[C@@H]1CC3=O` [Compound 7, Desmondiin H], the IC50 in the test with RAW264.7 macrophages (Mus musculus) amounted to 23.5 µM; in test [1] (Trypanosoma cruzi), 3.7 µM. Moreover, the “Selectivity Index” value in test [1] was found to be 6.4.

For `CC(C)=CCC[C@@H](C)[C@@H]1CC[C@]2(C)C3=C(C(=O)C[C@@]12C)[C@@]1(C)CC[C@H](O)C(C)(C)[C@@H]1C[C@H]3O` [Compound 8, eupha-8,24-dien-3β,7α-diol-11-one], in the test on RAW264.7 macrophages (Mus musculus), the IC50 was 28.4 µM. Besides, in test [1], the “Selectivity Index” value came out at 5.8, the “Increase” value is given as 15–30% and the “Effect” value is “significant increase”. For the same compound, the half-inhibitory concentration (IC50) in test [1] (Trypanosoma cruzi) was 4.9 µM.

In the case of `O=C(Cn1ccnc1[N+](=O)[O-])NCc1ccccc1` [benznidazole, reference compound], the figures for the concentration for half-maximal inhibition (IC50) in test [2] and in test [2] (setting [3]) were 3.2 ± 0.5 µM and 3.6 ± 0.4 µM, respectively.
